18 molecules from article PMC2693028 (ChemMedChem, 2008) can be followed below.

As a reminder, the IC50 is the point on the concentration scale where inhibition reaches its midpoint. Read a low IC50 as higher potency. As usually defined, the inhibition is the drop in the measured response relative to a control, in per cent.

In brackets after ≈: the same amount, converted by molar mass.

The target of one experiment is Enoyl reducase (ENR) from Bacillus anthracis (BaENR) (Bacillus anthracis, UniProt A0A6L8PBX8). Nature of the experiment: biochemical.
Chain of Enoyl reducase (ENR) from Bacillus anthracis (BaENR) (A0A6L8PBX8 1-256): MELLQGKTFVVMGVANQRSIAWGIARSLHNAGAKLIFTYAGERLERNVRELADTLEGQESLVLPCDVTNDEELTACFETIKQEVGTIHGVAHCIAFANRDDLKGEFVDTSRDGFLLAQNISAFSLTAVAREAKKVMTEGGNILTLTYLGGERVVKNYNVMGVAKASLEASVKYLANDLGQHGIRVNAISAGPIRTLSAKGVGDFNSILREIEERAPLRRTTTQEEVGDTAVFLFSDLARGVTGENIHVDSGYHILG
Conditions: not given
Molecule `CCCc1ccc(Oc2cccc(-c3ccccc3)c2)c(O)c1` [Compound 36, 2-(Biphenyl-3-yloxy)-5-propylphenol] came in with an IC50 of 500 ± 100 nM.

Staying with this experiment, now noted: IC50.
As for `Cc1ccc(S(=O)(=O)Nc2ccc(Oc3ccc(Cl)cc3O)cc2)cc1` [Compound 22, 4-(4-Chloro-2-hydroxyphenoxy)-1-(4 methylphenylsulphonamido) benzene], the IC50 is more than 12000 nM.
`CC(=O)Nc1ccc(Oc2ccc(Cl)cc2O)cn1` [Compound 24, N-[5-(4-Chloro-2-hydroxyphenoxy)-pyridin-2-yl]acetamide] showed an IC50 of 4100 nM.
On the same count and under the same terms, the same measure for `CCCc1ccc(Oc2ccccc2)c(O)c1` [Compound 27, 2-Phenoxy-5-propylphenol]: more than 800 nM.
The same measure, in the same setting: under `CCCc1ccc(Oc2cccc(C(=O)OC)c2)c(O)c1` [Compound 37, 3-(2-Hydroxy-4-propylphenoxy)benzoic acid methyl ester] stands 2000 ± 300 nM; under `CCCc1ccc(Oc2ccc(C(C)=O)cc2)c(O)c1` [Compound 40, 1-[4-(2-Hydroxy-4-propylphenoxy)phenyl]ethanone], 800 ± 100 nM; under `CCCc1ccc(Oc2ccc(SC)cc2)c(O)c1` [Compound 41, 2-(4-Methylsulfanylphenoxy)-5-propylphenol], 600 nM.

The experiment is the same for the next values; noted with them: read-out: % inhibition at 1μM.
Regarding `OCC(O)Cc1ccc(Oc2ccccc2)c(O)c1` (stereo not drawn) [Compound 26, 3-(3-Hydroxy-4-phenoxyphenyl)propane-1,2-diol], the inhibition at 1 µM came out at 9.8%.
In the case of `OCc1ccc(Oc2ccccc2)c(O)c1` [Compound 28, 5-Hydroxymethyl-2-phenoxyphenol], the inhibition at 1 µM came out at 5%.
As to `CCCC(C)NCc1ccc(Oc2ccccc2)c(O)c1` (stereo not drawn) [Compound 29, 5-[(1-Methyl-butylamino)methyl]-2-phenoxyphenol], the inhibition at 1 µM stood at 0%.
For `Oc1cc(CN2CCCCC2)ccc1Oc1ccccc1` [Compound 30, 2-Phenoxy-5-piperidin-1-ylmethylphenol], the inhibition at 1 µM was 0%.
Turning to `Oc1cc(CNCc2ccccc2)ccc1Oc1ccccc1` [Compound 31, 5-(Benzylaminomethyl)-2-phenoxyphenol], the inhibition at 1 µM amounted to 7.9%.
As to `Oc1cc(Cl)ccc1Oc1ccc(Oc2ccc(Cl)cc2O)cc1` [Compound 32, 2-[4-(2-Hydroxy-4-Chlorophenoxy)phenoxy]-5-chlorophenol], the inhibition at 1 µM worked out at 15.5%.
On to `Oc1cc(Cl)ccc1Oc1cccc(Oc2ccc(Cl)cc2O)c1` [Compound 33, 2-[3-(2-Hydroxy-4-chlorophenoxy)phenoxy]-5-chlorophenol], for which the inhibition at 1 µM worked out at 9.9%.
As for `CCCc1ccc(Oc2cccc(Oc3ccc(CCC)cc3O)c2)c(O)c1` [Compound 34, 2-[3-(2-Hydroxy-4-propylphenoxy)phenoxy]-5-Propylphenol], the inhibition at 1 µM came to 20.6%.
Still for that read-out and setting: the same measure for `CCCc1ccc(Oc2ccc(Oc3ccc(CCC)cc3O)cc2)c(O)c1` [Compound 35, 2-[4-(2-Hydroxy-4-propylphenoxy)phenoxy]-5-propylphenol]: 10%.
Same read-out and setting: under `CCCc1ccc(Oc2cccc(C(=O)O)c2)c(O)c1` [Compound 39, 3-(2-Hydroxy-4-propylphenoxy)benzoic acid] stands 9.2%; under `CCCc1ccc(Oc2ccc(C(C)O)cc2)c(O)c1` (stereo not drawn) [Compound 42, 2-[4-(1-Hydroxyethyl)phenoxy]-5-propylphenol], 17.1%.

Another experiment relates to ΔANR B. anthracis. Nature of the experiment: microbe, parasite or virus in culture. In kind it is cell-based, Bacillus anthracis. The conditions noted are these: Bacillus anthracis.
In turn, `Cc1ccc(S(=O)(=O)Nc2ccc(Oc3ccc(Cl)cc3O)cc2)cc1` [Compound 22, 4-(4-Chloro-2-hydroxyphenoxy)-1-(4 methylphenylsulphonamido) benzene] yielded an MIC of 4.9 µg/mL (≈ 12.6 µM).
The same measure, in the same setting: the same measure for `CC(=O)Nc1ccc(Oc2ccc(Cl)cc2O)cn1` [Compound 24, N-[5-(4-Chloro-2-hydroxyphenoxy)-pyridin-2-yl]acetamide]: more than 112 µg/mL; for `OCC(O)Cc1ccc(Oc2ccccc2)c(O)c1` (stereo not drawn) [Compound 26, 3-(3-Hydroxy-4-phenoxyphenyl)propane-1,2-diol]: more than 104 µg/mL.
Consider `CCCc1ccc(Oc2ccccc2)c(O)c1` [Compound 27, 2-Phenoxy-5-propylphenol], for which the MIC is 22.8 µg/mL (≈ 99.9 µM).
The same measure, in the same setting: the same measure for `OCc1ccc(Oc2ccccc2)c(O)c1` [Compound 28, 5-Hydroxymethyl-2-phenoxyphenol]: 43 µg/mL (≈ 199 µM); for `CCCC(C)NCc1ccc(Oc2ccccc2)c(O)c1` (stereo not drawn) [Compound 29, 5-[(1-Methyl-butylamino)methyl]-2-phenoxyphenol]: more than 109 µg/mL; for `Oc1cc(CN2CCCCC2)ccc1Oc1ccccc1` [Compound 30, 2-Phenoxy-5-piperidin-1-ylmethylphenol]: more than 113 µg/mL.
Molecule `Oc1cc(CNCc2ccccc2)ccc1Oc1ccccc1` [Compound 31, 5-(Benzylaminomethyl)-2-phenoxyphenol] returned an MIC of more than 122 µg/mL.
Same read-out and setting: the same measure for `Oc1cc(Cl)ccc1Oc1ccc(Oc2ccc(Cl)cc2O)cc1` [Compound 32, 2-[4-(2-Hydroxy-4-Chlorophenoxy)phenoxy]-5-chlorophenol]: more than 145 µg/mL.
`Oc1cc(Cl)ccc1Oc1cccc(Oc2ccc(Cl)cc2O)c1` [Compound 33, 2-[3-(2-Hydroxy-4-chlorophenoxy)phenoxy]-5-chlorophenol] yielded an MIC of 2.3 µg/mL (≈ 6.33 µM).
The same measure, in the same setting: the same measure for `CCCc1ccc(Oc2cccc(Oc3ccc(CCC)cc3O)c2)c(O)c1` [Compound 34, 2-[3-(2-Hydroxy-4-propylphenoxy)phenoxy]-5-Propylphenol]: 1.2 µg/mL (≈ 3.17 µM); for `CCCc1ccc(Oc2ccc(Oc3ccc(CCC)cc3O)cc2)c(O)c1` [Compound 35, 2-[4-(2-Hydroxy-4-propylphenoxy)phenoxy]-5-propylphenol]: more than 151 µg/mL; for `CCCc1ccc(Oc2cccc(-c3ccccc3)c2)c(O)c1` [Compound 36, 2-(Biphenyl-3-yloxy)-5-propylphenol]: 1.9 µg/mL (≈ 6.24 µM).
For `CCCc1ccc(Oc2cccc(C(=O)OC)c2)c(O)c1` [Compound 37, 3-(2-Hydroxy-4-propylphenoxy)benzoic acid methyl ester], the MIC amounted to 3.6 µg/mL (≈ 12.6 µM).
On the same count and under the same terms, under `CCCc1ccc(Oc2cccc(C(=O)O)c2)c(O)c1` [Compound 39, 3-(2-Hydroxy-4-propylphenoxy)benzoic acid] stands 6.8 µg/mL (≈ 25 µM); under `CCCc1ccc(Oc2ccc(C(C)=O)cc2)c(O)c1` [Compound 40, 1-[4-(2-Hydroxy-4-propylphenoxy)phenyl]ethanone], 13.5 µg/mL (≈ 49.9 µM); under `CCCc1ccc(Oc2ccc(SC)cc2)c(O)c1` [Compound 41, 2-(4-Methylsulfanylphenoxy)-5-propylphenol], 13.5 µg/mL (≈ 49.2 µM).
`CCCc1ccc(Oc2ccc(C(C)O)cc2)c(O)c1` (stereo not drawn) [Compound 42, 2-[4-(1-Hydroxyethyl)phenoxy]-5-propylphenol] yielded an MIC of 54.5 µg/mL (≈ 200 µM).
